Test: Percentages of plasma metabolites in human after oral administration of [14C]-Formula I (HPLC radioprofiling of pooled plasma)
Assay type: in vivo
Description: Six healthy male human subjects were administered a single 10 mg (free base) oral dose of 4-(3,4-dichloro-phenyl)-2-[2-(4-methyl-piperazin-1-yl)-benzylidene]-thiomorpholin-3-one containing 100 μCi of [^14C]-4-(3,4-dichloro-phenyl)-2-[2-(4-methyl-piperazin-1-yl)-benzylidene]-thiomorpholin-3-one (Lot# 49,800-103-1, specific activity 15.66 mCi/mmol, radiochemical purity >99%). [drawing 9]
a). Blood sufficient to provide approximately 10 mL plasma for 4-(3,4-dichloro-phenyl)-2-[2-(4-methyl-piperazin-1-yl)-benzylidene]-thiomorpholin-3-one metabolite identification was collected in heparinized tubes at the following approximate times: 2, 8, 24, 48, 96, and 192 hours after drug administration. Samples were centrifuged at approximately 4° C. and the plasma was stored in appropriately labeled, screw-capped opaque polypropylene tubes at −20° C. until analysis.
Plasma samples were pooled by human subject separately according to the method published by Raid, et al. (Raid, et al: Pharm. Res. (1991), 8(4), 541-543). Aliquots (1 mL) from each pool were extracted with 5 mL of acetonitrile. The mixtures were vortex-mixed for 3 minutes, sonicated for 30 minutes and then centrifuged for 7 minutes at 20° C. Aliquotes of the supernatant (2×500 μL) were counted to determine recovery. Approximately 95.1% of the radioactivity was recovered in the supernatants. The supernatants were combined according to subject number to two equal sets and dried in the Turbovap at room temperature. One set of the dried residue (six subjects) was reconstituted in 150 μL of 10 mM ammonium acetate (pH 4.0)/methanol/dimethyl sulfoxide (1.5:1.5:1) and aliquots of 100 μL were injected onto HPLC-Arc system for profiling. The other set of dried residues were combined and reconstituted in 300 μL of 10 mM ammonium acetate (pH 4.0)/methanol/dimethyl sulfoxide (1.5:1.5:1) and 90 μL was injected onto HPLC-MS/MS system for metabolite identification.

SMILES: CN1CCn2c(c(C3SCCN(c4ccc(Cl)c(Cl)c4)C3=O)c3ccccc32)C1 (stereo not shown) [Metabolite M10A]
- % of Total Radioactivity in Plasma, Subject#1 (human Subject#1, single 10 mg oral dose of [14C]-parent compound): 60.6%
- % of Total Radioactivity in Plasma, Subject#2 (human Subject#2, single 10 mg oral dose of [14C]-parent compound): 57.6%
- % of Total Radioactivity in Plasma, Subject#3 (human Subject#3, single 10 mg oral dose of [14C]-parent compound): 62.8%
- % of Total Radioactivity in Plasma, Subject#4 (human Subject#4, single 10 mg oral dose of [14C]-parent compound): 72.2%
- % of Total Radioactivity in Plasma, Subject#5 (human Subject#5, single 10 mg oral dose of [14C]-parent compound): 69.6%
- % of Total Radioactivity in Plasma, Subject#6 (human Subject#6, single 10 mg oral dose of [14C]-parent compound): 68.3%
- % of Total Radioactivity in Plasma, Mean (mean of six human subjects, single 10 mg oral dose of [14C]-parent compound): 65.2%

— patent US20060009448A1, “Metabolites of 4-(3,4-dichloro-phenyl)-2-[2-(4-methyl-piperazin-1-yl)-benzylidene]thiomorpholin-3-one” (Pfizer Inc., priority 2004, published 2006)
